# PubChem BioAssay AID328 (DTP/NCI, 2004)
# Values joined by “and” are separate entries in the source; they are usually repeats but may differ in a detail not shown here. Identical values can stand only once. Toxic doses and inconclusive results are not listed.
# System: BDF1 mice, P388 leukemia ip, median survival T/C
# Assay: NCI In Vivo Anticancer Drug Screen. Data for tumor model P388 Leukemia (intraperitoneal) in B6D2F1 (BDF1) mice
# Conditions: endpoint: median survival time, vehicle: saline, higher = longer survival
# Summary of the method: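 Transplantable tumour in mice; compound vs vehicle dosing; survival scored; ratio of treated to control reported.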
structure (smiles),measurement,setting,value
Nc1ncnc2c1ccn2C1OC(CO)C(O)C1O (stereo not drawn),T/C,"dose: 0.19 mg/kg/injection, schedule: Q03DX005 (ip)",100 % of control
same,T/C,"dose: 0.25 mg/kg/injection, schedule: Q02DX005 (ip)",108 % of control
same,T/C,"dose: 0.25 mg/kg/injection, schedule: Q#A X002 (ip)",108 % of control
same,T/C,"dose: 0.31 mg/kg/injection, schedule: Q01DX010 (ip)",122 % of control
same,T/C,"dose: 0.38 mg/kg/injection, schedule: Q03DX005 (ip)",104 % of control
same,T/C,"dose: 0.5 mg/kg/injection, schedule: Q01DX006 (iv)",95 % of control
same,T/C,"dose: 0.5 mg/kg/injection, schedule: Q01DX010 (oral)",109 % of control
same,T/C,"dose: 0.5 mg/kg/injection, schedule: Q02DX004 (im)",104 % of control
same,T/C,"dose: 0.5 mg/kg/injection, schedule: Q02DX005 (ip)",112 % of control
same,T/C,"dose: 0.5 mg/kg/injection, schedule: Q04DX003 (ip)",112 % of control
same,T/C,"dose: 0.5 mg/kg/injection, schedule: Q07DX002 (ip)",112 % of control
same,T/C,"dose: 0.5 mg/kg/injection, schedule: Q#A X002 (ip)",112 % of control
same,T/C,"dose: 0.75 mg/kg/injection, schedule: Q03DX005 (ip)",118 % of control
same,T/C,"dose: 1.0 mg/kg/injection, schedule: Q01DX001 (ip)",108 % of control
same,T/C,"dose: 1.0 mg/kg/injection, schedule: Q01DX006 (iv)",95 % of control
same,T/C,"dose: 1.0 mg/kg/injection, schedule: Q01DX010 (ip)",150 % of control
same,T/C,"dose: 1.0 mg/kg/injection, schedule: Q01DX010 (oral)",100 % of control
same,T/C,"dose: 1.0 mg/kg/injection, schedule: Q01DX010 (sc)",91 % of control and 104 % of control
same,T/C,"dose: 1.0 mg/kg/injection, schedule: Q02DX004 (im)",91 % of control
same,T/C,"dose: 1.0 mg/kg/injection, schedule: Q04DX003 (ip)",116 % of control
same,T/C,"dose: 1.0 mg/kg/injection, schedule: Q07DX002 (ip)",116 % of control
same,T/C,"dose: 1.5 mg/kg/injection, schedule: Q03DX005 (ip)",154 % of control
same,T/C,"dose: 1.5 mg/kg/injection, schedule: Q03DX010 (ip)",172 % of control
same,T/C,"dose: 1.75 mg/kg/injection, schedule: Q07DX002 (ip)",150 % of control
same,T/C,"dose: 2.0 mg/kg/injection, schedule: Q01DX001 (ip)",116 % of control
same,T/C,"dose: 2.0 mg/kg/injection, schedule: Q01DX006 (iv)",91 % of control
same,T/C,"dose: 2.0 mg/kg/injection, schedule: Q01DX010 (im)",104 % of control
same,T/C,"dose: 2.0 mg/kg/injection, schedule: Q01DX010 (ip)",108 % of control
same,T/C,"dose: 2.0 mg/kg/injection, schedule: Q01DX010 (oral)",100 % of control
same,T/C,"dose: 2.0 mg/kg/injection, schedule: Q01DX010 (sc)",100 % of control and 113 % of control
same,T/C,"dose: 2.0 mg/kg/injection, schedule: Q02DX004 (im)",100 % of control
same,T/C,"dose: 2.0 mg/kg/injection, schedule: Q04DX003 (ip)",120 % of control
same,T/C,"dose: 2.0 mg/kg/injection, schedule: Q07DX002 (ip)",116 % of control
same,T/C,"dose: 2.0 mg/kg/injection, schedule: Q#A X002 (ip)",95 % of control
same,T/C,"dose: 3.0 mg/kg/injection, schedule: Q03DX010 (ip)",159 % of control
same,T/C,"dose: 4.0 mg/kg/injection, schedule: Q01DX010 (im)",104 % of control
same,T/C,"dose: 4.0 mg/kg/injection, schedule: Q01DX010 (sc)",112 % of control and 113 % of control
same,T/C,"dose: 4.0 mg/kg/injection, schedule: Q02DX004 (im)",100 % of control
same,T/C,"dose: 4.0 mg/kg/injection, schedule: Q04DX003 (ip)",100 % of control
same,T/C,"dose: 4.0 mg/kg/injection, schedule: Q07DX002 (ip)",116 % of control
same,T/C,"dose: 7.0 mg/kg/injection, schedule: Q01DX001 (ip)",150 % of control
same,T/C,"dose: 8.0 mg/kg/injection, schedule: Q01DX001 (oral)",92 % of control
same,T/C,"dose: 8.0 mg/kg/injection, schedule: Q01DX010 (im)",150 % of control
same,T/C,"dose: 8.0 mg/kg/injection, schedule: Q01DX010 (oral)",91 % of control
same,T/C,"dose: 8.0 mg/kg/injection, schedule: Q01DX010 (sc)",118 % of control
same,T/C,"dose: 16.0 mg/kg/injection, schedule: Q01DX001 (oral)",92 % of control
same,T/C,"dose: 28.0 mg/kg/injection, schedule: Q01DX001 (ip)",118 % of control
same,T/C,"dose: 31.5 mg/kg/injection, schedule: Q#A X020 (ip)",104 % of control
same,T/C,"dose: 62.5 mg/kg/injection, schedule: Q#A X020 (ip)",109 % of control
same,T/C,"dose: 125.0 mg/kg/injection, schedule: Q#A X020 (ip)",118 % of control
same,T/C,"dose: 63.0 micrograms/kg/injection, schedule: Q01DX010 (ip)",109 % of control
same,T/C,"dose: 125.0 micrograms/kg/injection, schedule: Q01DX010 (ip)",104 % of control
same,T/C,"dose: 250.0 micrograms/kg/injection, schedule: Q01DX010 (ip)",104 % of control
